# Reference: patent US20150105252A1, “SUBSTITUTED PYRAZOLES AS HERBICIDES” (E I DU PONT DE NEMOURS AND COMPANY, priority 2013, published 2015)
# What was measured:
# wild poinsettia = assay: Test F postemergence; format: in vivo, Euphorbia heterophylla; conditions: scale 0 to 100
# Excerpt: (§1) Seeds of plant species selected from corn (Zea mays), soybean (Glycine max), velvetleaf (Abutilon theophrasti), lambsquarters (Chenopodium album), wild poinsettia (Euphorbia heterophylla), pigweed, palmer (palmer pigweed, Amaranthus palmeri), common waterhemp (Amaranthus rudis), surinam grass (Brachiaria decumbens), large crabgrass (Digitaria sanguinalis), crabgrass, Brazil (Brazilian crabgrass, Digitaria horizontalis), fall panicum (Panicum dichotomiflorum), giant foxtail (Setaria faberii), green foxtail (Setaria viridis), goosegrass (Eleusine indica), johnsongrass (Sorghum halepense), common ragweed (Ambrosia elation), barnyardgrass (Echinochloa crus-galli), southern sandbur (Cenchrus echinatus), arrowleaf sida (Sida rhombifolia), Italian ryegrass (Lolium multiflorum), dayflower, VA (Virginia (VA) dayflower, Commelina virginica), field bindweed (Convolvulus arvensis), cocklebur (common cocklebur, Xanthium strumarium), morningglory (Ipomoea coccinea), nightshade (eastern black nightshade, Solanum ptycanthum), kochia (Kochia scoparia), yellow nutsedge (Cyperus esculentus), and hairy beggarticks (Bidens pilosa), were planted into a silt loam soil and treated preemergence with test chemicals formulated in a non-phytotoxic solvent mixture which included a surfactant.
# (§2) At the same time, plants from these crop and weed species and also horseweed (Canada horseweed, Conyza canadensis), smartweed (ladysthumb smartweed, Polygonum persicaria), waterhemp_RES1, (ALS & Triazine resistant common waterhemp, Amaranthus rudis), and waterhemp_RES2, (ALS & HPPD resistant common waterhemp, Amaranthus rudis) were treated with postemergence applications of test chemicals formulated in the same manner. Plants ranged in height from 2 to 18 cm for postemergence treatments (1- to 4-leaf stage). Treated plants and controls were maintained in a greenhouse for 14 to 21 days, after which time all species were compared to controls and visually evaluated. Plant response ratings, summarized in Table F, are based on a scale of 0 to 100 where 0 is no effect and 100 is complete control. A dash (-) response means no test result.
# southern sandbur = assay: Test F postemergence; format: in vivo, Cenchrus echinatus; conditions: scale 0 to 100
# Excerpt: as §1, §2
# field bindweed = assay: Test F postemergence; format: in vivo, Convolvulus arvensis; conditions: scale 0 to 100
# Excerpt: as §1, §2
# kochia = assay: Test A postemergence; format: in vivo, Kochia scoparia
# Outline: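 Both timings tested concurrently in loam/sand soil: preemergence by directed soil spray, postemergence on plants of 2–10 cm at the one- to two-leaf stage. Greenhouse holding period was approximately 10 days before visual injury assessment (0–100, 0 = no effect).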
# chamomile = assay: Test D preemergence; format: in vivo, Matricaria inodora; conditions: scale 0 to 100
# Excerpt: Seeds of plant species selected from bluegrass (annual bluegrass, Poa annua), blackgrass (Alopecurus myosuroides), canarygrass (littleseed canarygrass, Phalaris minor), chickweed (common chickweed, Stellaria media), galium (catchweed bedstraw, Galium aparine), bromegrass, downy (downy bromegrass, Bromus tectorum), field poppy (Papaver rhoeas), field violet (Viola arvensis), foxtail, green (green foxtail, Setaria viridis), deadnettle (henbit deadnettle, Lamium amplexicaule), ryegrass, Italian (Italian ryegrass, Lolium multiflorum), kochia (Kochia scoparia), lambsquarters (Chenopodium album), oilseed rape (Brassica napus), pigweed (redroot pigweed, Amaranthus retroflexus), chamomile (scentless chamomile, Matricaria inodora), speedwell (bird's-eye speedwell, Veronica persica), barley, spring (spring barley, Hordeum vulgare), wheat, spring (spring wheat, Triticum aestivum), buckwheat, wild (wild buckwheat, Polygonum convolvulus), mustard, wild (wild mustard, Sinapis arvensis), oat, wild (wild oat, Avena fatua), radish, wild (wild radish, Raphanus raphanistrum), windgrass (Apera spica-venti), Russian thistle (Salsola kali), barley, winter (winter barley, Hordeum vulgare), and wheat, winter (winter wheat, Triticum aestivum) were planted into a silt loam soil and treated preemergence with test chemicals formulated in a non-phytotoxic solvent mixture which included a surfactant.
# At the same time, these species were planted in pots containing Redi-Earth® planting medium (Scotts Company, 14111 Scottslawn Road, Marysville, Ohio 43041) comprising spaghnum peat moss, vermiculite, wetting agent and starter nutrients and treated with postemergence applications of the test chemicals formulated in the same manner. Plants ranged in height from 2 to 18 cm (1- to 4-leaf stage). Treated plants and controls were maintained in a controlled growth environment for 14 to 21 days after which time all species were compared to controls and visually evaluated. Plant response ratings, summarized in Table D, are based on a scale of 0 to 100 where 0 is no effect and 100 is complete control. A dash (-) response means no test result.
# sedge, umbrella = assay: Test C flooded paddy test; format: in vivo, Cyperus difformis; conditions: Flood
# Outline: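 Compound was added to standing water 3 cm above soil, flood maintained, and plants held in a greenhouse before visual scoring against controls at 13 to 15 days.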
# [1] = Postemergence, 500 g ai/ha, 0 to 100 scale (0 no effect, 100 complete control)
# [2] = postemergence, 125 g ai/ha, about 10 days, visual rating on 0 to 100 scale (0 no effect, 100 complete control)
# [3] = 31 g ai/ha, scale 0 to 100 (0 no effect, 100 complete control)
# [4] = 62 g ai/ha, scale 0 to 100 (0 no effect, 100 complete control)
# [5] = 125 g ai/ha, scale 0 to 100 (0 no effect, 100 complete control)
Structure (SMILES),"Plant response rating, Wild Poinsettia (wild poinsettia; Postemergence, 31 g ai/ha)","Plant response rating, Wild Poinsettia (wild poinsettia; Postemergence, 125 g ai/ha)","Plant response rating, Wild Poinsettia (wild poinsettia; Postemergence, 250 g ai/ha)","Plant response rating, Wild Poinsettia (wild poinsettia; postemergence, 62 g ai/ha)","Plant response rating, Wild Poinsettia (wild poinsettia; postemergence, 500 g ai/ha)","Plant response rating, Southern Sandbur (southern sandbur; Postemergence, 31 g ai/ha)","Plant response rating, Southern Sandbur (southern sandbur; Postemergence, 125 g ai/ha)","Plant response rating, Southern Sandbur (southern sandbur; Postemergence, 250 g ai/ha)","Plant response rating, Southern Sandbur (southern sandbur; postemergence, 62 g ai/ha)","Plant response rating, Southern Sandbur (southern sandbur; postemergence, 500 g ai/ha)","Plant response rating, Field Bindweed (field bindweed; Postemergence, 31 g ai/ha)","Plant response rating, Field Bindweed (field bindweed; Postemergence, 125 g ai/ha)","Plant response rating, Field Bindweed (field bindweed; Postemergence, 250 g ai/ha)","Plant response rating, Field Bindweed (field bindweed; postemergence, 62 g ai/ha)","Plant response rating, Field Bindweed (field bindweed; postemergence, 500 g ai/ha)","Plant response rating, Sedge, Umbrella (sedge, umbrella; [3])","Plant response rating, Sedge, Umbrella (sedge, umbrella; [4])",also measured
"CCc1cc(C(=O)NCC(F)(F)F)nn1Cc1ccnc(C(F)(F)F)c1 [Compound 78, 5-ethyl-N-(2,2,2-trifluoroethyl)-1-[[(2-trifluoromethyl)-4-pyridinyl]methyl]-1H-pyrazole-3-carboxamide]",25,70,80,50,90,0,30,80,10,90,40,90,95,70,98,,,
CCOc1cc(C(=O)NCC(F)(F)F)nn1Cc1ccnc(C(F)(F)F)c1 [Compound 104],45,95,90,60,100,10,45,90,30,90,70,90,90,70,95,,,
CCCc1cc(C(=O)NCC(F)(F)F)nn1Cc1ccnc(C(F)(F)F)c1 [Compound 105],40,70,100,50,100,0,30,70,10,90,70,70,80,75,90,,,
CCONC(=O)c1cc(CC)n(Cc2cc(C(F)(F)F)no2)n1 [Compound 125],,,,,,,,,,,,,,,,,,Kochia plant response rating (kochia; [1]): 90; Kochia plant response rating (kochia; [2]): 60
CCOc1cc(C(=O)NC2CC2)nn1Cc1ccnc(OC(F)F)c1 [Compound 133],,,,,,,,,,,,,,,,,,Kochia plant response rating (kochia; [1]): 100; Kochia plant response rating (kochia; [2]): 90
CCCc1cc(C(=O)NCC(F)(F)F)nn1Cc1cc(C(F)(F)F)nn1C [Compound 138],,,,,,,,,,,,,,,,,,"Plant response rating, Chamomile (chamomile; 31 g ai/ha): 0; Plant response rating, Chamomile (chamomile; 62 g ai/ha): 95; Plant response rating, Chamomile (chamomile; 125 g ai/ha): 100; Plant response rating, Chamomile (chamomile; 250 g ai/ha): 100"
CCCNC(=O)c1cc(CCCl)n(Cc2ccnc(C(F)(F)F)c2)n1 [Compound 145],,,,,,,,,,,,,,,,100,100,"Plant response rating, Sedge, Umbrella (sedge, umbrella; 125 g ai/ha, scale 0 to 100): 100; Plant response rating, Sedge, Umbrella (sedge, umbrella; 250 g ai/ha, scale 0 to 100): 100"
CCOc1cc(C(=O)NC(C)C)nn1Cc1ccnc(C(F)(F)F)c1 [Compound 188],60,60,80,70,85,0,50,70,20,90,70,90,95,70,95,,,"Plant response rating, Chamomile (chamomile; 31 g ai/ha): 100; Plant response rating, Chamomile (chamomile; 62 g ai/ha): 100; Plant response rating, Chamomile (chamomile; 125 g ai/ha): 100; Plant response rating, Chamomile (chamomile; 250 g ai/ha): 100"
CCOc1cc(C(=O)NC2CC2)nn1Cc1ccnc(C(F)(F)F)c1 [Compound 189],,,,,,,,,,,,,,,,,,"Plant response rating, Chamomile (chamomile; 31 g ai/ha): 65; Plant response rating, Chamomile (chamomile; 62 g ai/ha): 100; Plant response rating, Chamomile (chamomile; 125 g ai/ha): 100; Plant response rating, Chamomile (chamomile; 250 g ai/ha): 100"
CCONC(=O)c1cc(OCC)n(Cc2ccnc(C(F)(F)F)c2)n1 [Compound 195],,,,,,,,,,,,,,,,0,75,"Plant response rating, Sedge, Umbrella (sedge, umbrella; [5]): 80; Plant response rating, Sedge, Umbrella (sedge, umbrella; 250 g ai/ha, scale 0 to 100): 85"
CCc1cc(C(=O)NC2CC2)nn1Cc1ccnc(OCC(F)(F)F)c1 [Compound 200],,,,,,,,,,,,,,,,50,80,"Plant response rating, Sedge, Umbrella (sedge, umbrella; [5]): 100; Plant response rating, Sedge, Umbrella (sedge, umbrella; 250 g ai/ha, scale 0 to 100): 100"
CCc1cc(C(=O)NCC(F)(F)F)nn1Cc1cc(OC(F)F)nn1C [Compound 206],,,,,,,,,,,,,,,,,,"Kochia plant response rating (kochia; Postemergence, 125 g ai/ha, 0 to 100 scale, 0 no effect, 100 complete control): 80; Kochia plant response rating (kochia; [1]): 90"
CCc1cc(C(=O)NC2CC2)nn1Cc1cc(C(F)(F)C(F)(F)F)nn1C [Compound 226],,,,,,,,,,,,,,,,20,25,"Plant response rating, Sedge, Umbrella (sedge, umbrella; [5]): 85"
